Where two headings read alike, the source gives them in different places.
Legend:
[1] = target: T1, BTK enzyme (full-length BTK, hBTK) (Homo sapiens, UniProt Q06187); assay: Btk enzyme activity assay (LANCE TR-FRET); assay type: biochemical; details: 50 pM hBTK, 25 μM ATP, 60 minute compound and enzyme incubation, read-out: BTK binding IC50
T1 construct: recombinant protein from baculovirus-transfected Sf9 cells: full-length BTK, 6HIS-tag cleaved; 6HIS (cleaved yes); made in house; host or cells: baculovirus-transfected Sf9 cells
Protocol: BTK enzymatic activity was determined with the LANCE (Lanthanide Chelate Excite) TR-FRET (Time-resolved fluorescence resonance energy transfer) assay. […] To each well of a black non-binding surface Corning 384-well microplate (Corning Catalog #3820), 5 nL of compound (2000 fold dilution in final assay volume of 10 μL) was dispensed, followed by the addition of 7.5 μL of 1× kinase buffer (50 mM Hepes 7.5, 10 mM MgCl2, 0.01% Brij-35, 1 mM EGTA, 0.05% BSA & 1 mM DTT) containing 5.09 pg/μL (66.67 pM) of BTK enzyme (recombinant protein from baculovirus-transfected Sf9 cells: full-length BTK, 6HIS-tag cleaved). Following a 60 minute compound and enzyme incubation, each reaction was initiated by the addition of 2.5 μL 1× kinase buffer containing 8 μM biotinylated “A5” peptide (Biotin-[…]-NH2) (SEQ.ID.NO.: 1), and 100 μM ATP. The final reaction in each well of 10 μL consists of 50 pM hBTK, 2 μM biotin-A5-peptide, and 25 μM ATP. Phosphorylation reactions were allowed to proceed for 120 minutes. Reactions were immediately quenched by the addition of 20 uL of 1× quench buffer (15 mM EDTA, 25 mM Hepes 7.3, and 0.1% Triton X-100) containing detection reagents (0.626 nM of LANCE-Eu-W1024-anti-phosphoTyrosine antibody, PerkinElmer and 86.8 nM of Streptavidin-conjugated Dylight 650, Dyomics/ThermoFisher Scientific). After 60 minutes incubation with detection reagents, reaction plates were read on a PerkinElmer EnVision plate reader using standard TR-FRET protocol. Briefly, excitation of donor molecules (Eu-chelate:anti-phospho-antibody) with a laser light source at 337 nm produces energy that can be transferred to Dylight-650 acceptor molecules if this donor:acceptor pair is within close proximity. Fluorescence intensity at both 665 nm (acceptor) and 615 nm (donor) are measured and a TR-FRET ratio calculated for each well (acceptor intensity/donor intensity). IC50 values were determined by 4 parameter robust fit of TR-FRET ratio values vs. (Log10) compound concentrations.
The following Table 2 provides specific IC50 values for all the examples. The IC50 values set forth below were determined according to Assay method described above.

[2] = test system: adenosine uptake into HeLa cells; assay: [3H]Adenosine uptake assay in HeLa cells; assay type: cell-based; details: 60 minutes uptake, read-out: ADU inhibition IC50 (adenosine uptake inhibition potency)
Protocol: Compounds were also screened in an adenosine uptake functional cellular assay using the protocol described below.
Adenosine uptake activity was determined by monitoring the accumulation of tritiated adenosine into HeLa cells (ATCC catalog # CCL-2) using a PMT-based radiometric detection instrument. In this assay, the potency (IC50) of each compound was determined from a ten point (1:3 serial dilution; final compound concentration range in assay from 10 μM to 0.032 nM) titration curve using the following outlined procedure. To each well of a 96-well CytoStar-T scintillating microplate (Perkin Elmer Catalog # RPNQ0163), 25 000 HeLa cells in 100 μL of growth medium comprising: Minimum Essential Media (Life Technologies Catalog # 11095-080)+10% (v/v) foetal bovine serum (FBS; Sigma Aldrich Catalog # F2442) was added. These cells were incubated overnight at 37° C. in a humidified atmosphere with 5% (v/v) CO2. After this time the growth medium was removed and replaced with 40 μL assay medium comprising: Hanks balanced salts solution (HBSS; Thermo Fisher Catalog # SH30268.01)+5% (v/v) FBS. Compound stock solutions in DMSO were diluted in assay medium to 2.5× final compound concentration maintaining a constant DMSO concentration of 0.25% (v/v). 40 μL of compound in assay medium was dispensed into individual wells of the Cytostar-T plates and the plates were incubated for 30 minutes under ambient laboratory conditions. Following this incubation, 20 μL of 500 nM [^3H]adenosine (American Radiolabeled Chemicals Inc. Catalog # ART0287) in assay medium was added and incubated for a further 60 minutes under ambient laboratory conditions. The amount of radiolabel accumulation was then determined using a Perkin Elmer Topcount NXT microplate reader. In brief, HeLa cells adhere to the bottom of the Cytostar-T plate, uptake of [^3H]adenosine into these cells brings the radiolabel into sufficient proximity to excite the scintillant in the base of the plates. These events are captured by single PMT, time-resolved coincidence counting. IC50 values were determined by 4 parameter robust fit of counts per second values vs. (Log10) compound concentrations.

T1 sequence (Q06187 whole entry): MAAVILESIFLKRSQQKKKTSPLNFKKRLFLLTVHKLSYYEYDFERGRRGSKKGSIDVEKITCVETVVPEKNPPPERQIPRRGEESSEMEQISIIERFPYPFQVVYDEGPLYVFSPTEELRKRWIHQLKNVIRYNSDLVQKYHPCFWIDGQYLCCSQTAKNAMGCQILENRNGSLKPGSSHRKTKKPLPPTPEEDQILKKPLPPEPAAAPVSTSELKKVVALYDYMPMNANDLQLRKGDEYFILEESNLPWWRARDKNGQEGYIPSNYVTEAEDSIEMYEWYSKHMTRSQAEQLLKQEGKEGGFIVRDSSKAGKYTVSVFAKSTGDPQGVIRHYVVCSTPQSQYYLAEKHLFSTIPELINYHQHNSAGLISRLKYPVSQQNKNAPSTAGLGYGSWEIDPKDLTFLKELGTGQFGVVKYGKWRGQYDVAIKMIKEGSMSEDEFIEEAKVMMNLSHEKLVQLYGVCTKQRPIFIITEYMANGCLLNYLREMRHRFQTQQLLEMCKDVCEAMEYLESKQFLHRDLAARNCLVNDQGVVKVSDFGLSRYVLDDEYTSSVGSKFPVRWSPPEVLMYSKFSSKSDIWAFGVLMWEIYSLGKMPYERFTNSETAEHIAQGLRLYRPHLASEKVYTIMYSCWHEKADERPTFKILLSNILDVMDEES

| IC50 [1] [nM] | IC50 ([2]; Homo sapiens, HeLa) [nM] | IC50 [2] [nM] | Compound |
| --- | --- | --- | --- |
| 11.8 | 895 |  | CCOc1cc(C(=O)Nc2cc(C(F)(F)F)ccn2)ccc1-c1nc([C@H]2CC[C@H]3N(C2)C(=O)C2(CC2)C3(F)F)n2ccnc(N)c12 [Compound 2, 4-(8-amino-3-((6′S,8a′R)-1′,1′-difluoro-3′-oxohexahydro-1′H-spiro[cyclopropane-1,2′-indolizin]-6′-yl)imidazo[1,5-a]pyrazin-1-yl)-3-ethoxy-N-(4-(trifluoromethyl)pyridin-2-yl)benzamide] |
| 1 |  | 1330 | CCOc1cc(C(=O)Nc2cc(C(F)(F)F)ccn2)ccc1-c1nc([C@@H]2CC[C@@H]3N(C2)C(=O)C2(CC2)C3(F)F)n2ccnc(N)c12 [Compound 3, 4-(8-amino-3-((6′R,8a′S)-1′,1′-difluoro-3′-oxohexahydro-1′H-spiro[cyclopropane-1,2′-indolizin]-6′-yl)imidazo[1,5-a]pyrazin-1-yl)-3-ethoxy-N-(4-(trifluoromethyl)pyridin-2-yl)benzamide] |
| 1.47 | 912 |  | CCOc1cc(C(=O)Nc2cc(C(F)(F)F)ccn2)ccc1-c1nc([C@@H]2CC[C@H]3C(=O)C4(CC4)C(=O)N3C2)n2ccnc(N)c12 [Compound 5, 4-{8-amino-3-[(6′R,8a′S)-1′,3′-dioxohexahydrospiro[cyclopropane-1,2′-indolizin]-6′-yl]imidazo[1,5-a]pyrazin-1-yl}-3-ethoxy-N-[4-(trifluoromethyl)pyridin-2-yl]benzamide] |
| 0.857 | 152 |  | Nc1nccn2c([C@@H]3CC[C@H]4C(=O)C5(CC5)C(=O)N4C3)nc(-c3ccc(C(=O)Nc4cc(C(F)(F)F)ccn4)cc3)c12 [Compound 6, 4-{8-amino-3-[(6′R,8a′S)-1′,3′-dioxohexahydrospiro[cyclopropane-1,2′-indolizin]-6′-yl]imidazo[1,5-a]pyrazin-1-yl}-N-[4-(trifluoromethyl)pyridin-2-yl]benzamide] |
| 0.425 | 173 |  | Nc1nccn2c([C@@H]3CC[C@H]4C(=O)C5(CC5)C(=O)N4C3)nc(-c3ccc(C(=O)Nc4cc(C(F)(F)F)ccn4)cc3F)c12 [Compound 7, 4-{8-amino-3-[(6′R,8a′S)-1′,3′-dioxohexahydrospiro[cyclopropane-1,2′-indolizin]-6′-yl]imidazo[1,5-a]pyrazin-1-yl}-3-fluoro-N-[4-(trifluoromethyl)pyridin-2-yl]benzamide] |
| 2.07 | 50.9 |  | Cc1ccnc(NC(=O)c2ccc(-c3nc([C@@H]4CC[C@H]5C(=O)C6(CC6)C(=O)N5C4)n4ccnc(N)c34)cc2)c1 [Compound 8, 4-{8-amino-3-[(6′R,8a′S)-1′,3′-dioxohexahydrospiro[cyclopropane-1,2′-indolizin]-6′-yl]imidazo[1,5-a]pyrazin-1-yl}-N-(4-methylpyridin-2-yl)benzamide] |
| 1.62 | 183 |  | Nc1nccn2c([C@@H]3CC[C@H]4C(=O)C5(CC5)C(=O)N4C3)nc(-c3ccc(C(=O)Nc4cc(C5CC5)ccn4)cc3)c12 [Compound 9, 4-{8-amino-3-[(6′R,8a′S)-1′,3′-dioxohexahydrospiro[cyclopropane-1,2′-indolizin]-6′-yl]imidazo[1,5-a]pyrazin-1-yl}-N-(4-cyclopropylpyridin-2-yl)benzamide] |
| 0.952 | 861 |  | Nc1nccn2c([C@@H]3CC[C@H]4[C@@H](O)C5(CC5)C(=O)N4C3)nc(-c3ccc(C(=O)Nc4cc(C(F)(F)F)ccn4)cc3)c12 [Compound 10, 4-{8-amino-3-[(1′S,6′R,8a′S)-1′-hydroxy-3′-oxohexahydrospiro[cyclopropane-1,2′-indolizin]-6′-yl]imidazo[1,5-a]pyrazin-1-yl}-N-[4-(trifluoromethyl)pyridin-2-yl]benzamide] |
| 0.701 | 1990 |  | CCOc1cc(C(=O)Nc2cc(C(F)(F)F)ccn2)ccc1-c1nc([C@@H]2CC[C@H]3[C@@H](O)C4(CC4)C(=O)N3C2)n2ccnc(N)c12 [Compound 11, 4-{8-amino-3-[(1′S,6′R,8a′S)-1′-hydroxy-3′-oxohexahydrospiro[cyclopropane-1,2′-indolizin]-6′-yl]imidazo[1,5-a]pyrazin-1-yl}-3-ethoxy-N-[4-(trifluoromethyl)pyridin-2-yl]benzamide] |
